Assays:
[1] = compound: NC(=O)CCCCC1CCSS1 [lipoamide]; test: thermal stability z-score vs DMSO; higher = more thermally stabilized by treatment; conditions: HeLa, lipoamide concentration 100 µM
Method: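 Cellular thermal proteome profiling in HeLa cells. Cells were treated with 100 µM lipoamide for 1 h, with or without 1 mM arsenate for a further 1 h, then heated to ten temperatures (37-66.3 °C), and soluble protein was quantified by TMT mass spectrometry relative to 0.1% DMSO controls. The thermal stability score (sum of log2 fold changes minus the abundance score) was transformed to a z-score; mean of n = 3 experiments.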

[2] = compound: O=[As]([O-])(O)O.[K+] [potassium arsenate]; test: as above; conditions: HeLa; arsenate concentration 1 mM
Method: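 Cellular thermal proteome profiling in HeLa cells treated with 1 mM arsenate for 1 h (DMSO pretreatment), heated to ten temperatures (37-66.3 °C). Soluble protein was quantified by TMT mass spectrometry relative to DMSO controls; the thermal stability score was transformed to a z-score; mean of n = 3 experiments.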

[3] = arsenate co-treatment: 1 mM arsenate 1 h
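Also: each temperature applied for 3 min, abundance score taken as mean log2 fold change at the two lowest temperatures, z-score obtained by mean subtraction and division by SD.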

Chain of UniProt P60033 (P60033 whole entry): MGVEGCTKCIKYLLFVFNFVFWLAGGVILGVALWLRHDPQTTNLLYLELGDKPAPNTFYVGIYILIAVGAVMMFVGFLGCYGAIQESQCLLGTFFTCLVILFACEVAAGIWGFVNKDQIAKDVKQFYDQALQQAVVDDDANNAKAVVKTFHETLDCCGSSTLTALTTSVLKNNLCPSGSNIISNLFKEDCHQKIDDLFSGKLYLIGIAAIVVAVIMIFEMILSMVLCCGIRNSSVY
Chain of UniProt Q9ULM6 (Q9ULM6 whole entry): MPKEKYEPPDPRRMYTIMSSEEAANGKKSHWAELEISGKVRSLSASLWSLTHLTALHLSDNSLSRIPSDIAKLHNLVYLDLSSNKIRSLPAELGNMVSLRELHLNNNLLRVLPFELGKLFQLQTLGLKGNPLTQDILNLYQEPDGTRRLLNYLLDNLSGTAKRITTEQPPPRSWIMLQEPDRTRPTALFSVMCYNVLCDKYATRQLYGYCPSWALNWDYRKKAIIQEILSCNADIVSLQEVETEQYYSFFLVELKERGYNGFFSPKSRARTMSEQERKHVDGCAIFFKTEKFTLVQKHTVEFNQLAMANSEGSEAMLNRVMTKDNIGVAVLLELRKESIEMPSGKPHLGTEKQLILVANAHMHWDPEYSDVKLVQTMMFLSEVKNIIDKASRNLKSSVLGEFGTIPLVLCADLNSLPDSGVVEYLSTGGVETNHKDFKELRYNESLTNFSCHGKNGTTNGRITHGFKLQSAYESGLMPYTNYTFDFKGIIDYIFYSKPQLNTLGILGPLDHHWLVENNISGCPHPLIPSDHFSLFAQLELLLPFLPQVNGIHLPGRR
Chain of UniProt Q9NQ48 (Q9NQ48 whole entry): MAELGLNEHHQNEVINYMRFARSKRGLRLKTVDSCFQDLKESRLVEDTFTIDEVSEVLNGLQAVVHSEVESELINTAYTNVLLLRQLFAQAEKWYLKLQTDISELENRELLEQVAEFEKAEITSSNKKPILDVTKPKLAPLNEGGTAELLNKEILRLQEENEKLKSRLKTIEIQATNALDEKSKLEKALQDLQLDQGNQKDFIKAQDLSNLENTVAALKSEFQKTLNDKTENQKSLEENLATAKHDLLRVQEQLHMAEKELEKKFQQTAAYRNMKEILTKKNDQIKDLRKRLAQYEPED
Chain of UniProt Q1KMD3 (Q1KMD3 whole entry): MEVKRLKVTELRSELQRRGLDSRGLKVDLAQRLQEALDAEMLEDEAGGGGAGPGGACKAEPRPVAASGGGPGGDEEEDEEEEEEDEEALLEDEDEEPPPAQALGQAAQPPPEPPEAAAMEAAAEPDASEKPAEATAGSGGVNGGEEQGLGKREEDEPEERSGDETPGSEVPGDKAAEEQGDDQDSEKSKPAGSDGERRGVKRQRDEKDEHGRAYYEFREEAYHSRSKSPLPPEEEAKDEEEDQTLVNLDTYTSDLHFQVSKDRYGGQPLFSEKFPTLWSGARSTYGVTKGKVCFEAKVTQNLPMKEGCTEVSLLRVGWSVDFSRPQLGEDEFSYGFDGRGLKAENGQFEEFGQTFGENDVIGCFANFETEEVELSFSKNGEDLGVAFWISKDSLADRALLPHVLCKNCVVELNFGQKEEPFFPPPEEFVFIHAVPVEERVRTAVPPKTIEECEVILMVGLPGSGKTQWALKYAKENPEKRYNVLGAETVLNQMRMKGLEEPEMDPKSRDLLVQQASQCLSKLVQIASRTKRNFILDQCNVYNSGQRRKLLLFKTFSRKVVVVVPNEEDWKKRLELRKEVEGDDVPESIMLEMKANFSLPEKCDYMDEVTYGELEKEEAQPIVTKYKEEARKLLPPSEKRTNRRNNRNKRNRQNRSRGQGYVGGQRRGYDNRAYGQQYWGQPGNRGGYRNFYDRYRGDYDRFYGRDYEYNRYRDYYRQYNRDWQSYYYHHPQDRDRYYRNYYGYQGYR
Chain of UniProt Q15185 (Q15185 whole entry): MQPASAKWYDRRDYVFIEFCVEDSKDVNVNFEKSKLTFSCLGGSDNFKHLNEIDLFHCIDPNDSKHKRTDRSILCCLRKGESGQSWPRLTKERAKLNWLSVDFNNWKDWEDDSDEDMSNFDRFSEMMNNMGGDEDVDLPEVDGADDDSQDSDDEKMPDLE
Chain of UniProt Q5SYE7 (Q5SYE7 whole entry): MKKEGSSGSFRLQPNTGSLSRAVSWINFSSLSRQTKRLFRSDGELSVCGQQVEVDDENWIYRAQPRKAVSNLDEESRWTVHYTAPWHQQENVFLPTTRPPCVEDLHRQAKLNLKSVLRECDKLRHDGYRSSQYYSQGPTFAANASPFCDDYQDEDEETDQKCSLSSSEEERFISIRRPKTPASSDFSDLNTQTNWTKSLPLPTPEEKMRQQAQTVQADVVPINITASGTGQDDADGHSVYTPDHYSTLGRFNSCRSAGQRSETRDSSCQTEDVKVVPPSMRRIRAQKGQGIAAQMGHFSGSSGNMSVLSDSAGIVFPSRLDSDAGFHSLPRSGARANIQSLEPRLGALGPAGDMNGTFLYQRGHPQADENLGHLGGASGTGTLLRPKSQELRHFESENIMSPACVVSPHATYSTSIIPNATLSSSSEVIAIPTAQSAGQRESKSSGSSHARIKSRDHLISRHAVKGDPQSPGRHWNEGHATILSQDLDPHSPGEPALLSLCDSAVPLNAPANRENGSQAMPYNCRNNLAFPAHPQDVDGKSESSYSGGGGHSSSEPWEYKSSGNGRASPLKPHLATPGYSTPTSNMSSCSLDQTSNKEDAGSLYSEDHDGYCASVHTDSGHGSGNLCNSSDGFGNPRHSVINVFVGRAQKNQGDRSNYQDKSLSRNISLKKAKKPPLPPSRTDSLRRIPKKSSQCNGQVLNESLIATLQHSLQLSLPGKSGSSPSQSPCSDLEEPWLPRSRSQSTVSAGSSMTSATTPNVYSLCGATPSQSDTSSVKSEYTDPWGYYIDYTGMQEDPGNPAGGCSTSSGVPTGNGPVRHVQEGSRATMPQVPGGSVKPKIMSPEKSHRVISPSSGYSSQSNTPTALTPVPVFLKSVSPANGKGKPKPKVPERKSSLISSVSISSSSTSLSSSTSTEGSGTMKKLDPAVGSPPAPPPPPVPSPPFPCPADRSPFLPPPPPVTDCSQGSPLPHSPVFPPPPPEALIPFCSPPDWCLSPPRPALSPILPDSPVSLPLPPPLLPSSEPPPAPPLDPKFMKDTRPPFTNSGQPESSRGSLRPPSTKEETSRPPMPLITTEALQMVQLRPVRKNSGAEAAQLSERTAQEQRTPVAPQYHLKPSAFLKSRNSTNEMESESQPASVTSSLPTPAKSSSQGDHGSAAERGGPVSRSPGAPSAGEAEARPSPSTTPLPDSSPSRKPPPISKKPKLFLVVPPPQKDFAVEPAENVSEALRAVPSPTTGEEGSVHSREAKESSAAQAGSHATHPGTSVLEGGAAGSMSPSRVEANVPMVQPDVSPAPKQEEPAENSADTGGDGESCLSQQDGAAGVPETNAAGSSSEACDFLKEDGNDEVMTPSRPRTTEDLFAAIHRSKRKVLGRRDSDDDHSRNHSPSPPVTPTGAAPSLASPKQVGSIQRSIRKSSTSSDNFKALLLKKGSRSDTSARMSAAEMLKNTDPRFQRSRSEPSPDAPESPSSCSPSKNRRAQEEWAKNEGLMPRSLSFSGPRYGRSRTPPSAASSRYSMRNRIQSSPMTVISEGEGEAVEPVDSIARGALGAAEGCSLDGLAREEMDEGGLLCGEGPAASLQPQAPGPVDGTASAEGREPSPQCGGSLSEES
Chain of UniProt A6NHX0 (A6NHX0 whole entry): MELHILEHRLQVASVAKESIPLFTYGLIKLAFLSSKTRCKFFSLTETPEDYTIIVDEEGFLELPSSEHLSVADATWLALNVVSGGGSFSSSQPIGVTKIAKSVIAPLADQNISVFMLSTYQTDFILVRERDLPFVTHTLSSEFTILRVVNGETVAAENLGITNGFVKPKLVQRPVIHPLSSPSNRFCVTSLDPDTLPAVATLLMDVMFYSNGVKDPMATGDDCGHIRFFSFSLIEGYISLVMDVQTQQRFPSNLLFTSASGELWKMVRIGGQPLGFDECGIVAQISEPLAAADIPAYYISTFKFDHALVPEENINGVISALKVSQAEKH
Chain of UniProt Q13232 (Q13232 whole entry): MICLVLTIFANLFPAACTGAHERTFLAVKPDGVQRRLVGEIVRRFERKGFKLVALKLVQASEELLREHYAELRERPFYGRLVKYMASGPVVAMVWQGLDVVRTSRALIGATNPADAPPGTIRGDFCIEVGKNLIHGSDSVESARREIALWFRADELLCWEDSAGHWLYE
Chain of UniProt Q7L8L6 (Q7L8L6 whole entry): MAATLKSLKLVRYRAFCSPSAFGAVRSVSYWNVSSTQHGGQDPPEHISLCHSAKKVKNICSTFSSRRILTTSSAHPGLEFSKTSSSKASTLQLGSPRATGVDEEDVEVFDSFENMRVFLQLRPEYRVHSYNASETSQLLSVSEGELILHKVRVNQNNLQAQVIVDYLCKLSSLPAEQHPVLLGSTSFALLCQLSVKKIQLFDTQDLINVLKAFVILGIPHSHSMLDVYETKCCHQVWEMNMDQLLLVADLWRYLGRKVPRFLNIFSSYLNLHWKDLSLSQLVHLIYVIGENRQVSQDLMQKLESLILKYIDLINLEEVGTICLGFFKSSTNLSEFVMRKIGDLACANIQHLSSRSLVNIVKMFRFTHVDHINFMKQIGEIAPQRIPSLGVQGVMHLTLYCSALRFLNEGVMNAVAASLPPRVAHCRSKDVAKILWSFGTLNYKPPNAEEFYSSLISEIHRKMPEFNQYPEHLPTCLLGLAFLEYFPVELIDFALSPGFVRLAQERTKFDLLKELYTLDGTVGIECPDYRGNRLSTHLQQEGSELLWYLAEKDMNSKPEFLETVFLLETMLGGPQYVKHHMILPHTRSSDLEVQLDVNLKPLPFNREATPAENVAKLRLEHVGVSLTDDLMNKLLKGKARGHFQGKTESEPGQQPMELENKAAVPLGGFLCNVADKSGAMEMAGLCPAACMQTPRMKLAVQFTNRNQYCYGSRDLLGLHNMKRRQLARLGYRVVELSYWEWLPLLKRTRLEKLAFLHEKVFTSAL
Chain of UniProt O75380 (O75380 whole entry): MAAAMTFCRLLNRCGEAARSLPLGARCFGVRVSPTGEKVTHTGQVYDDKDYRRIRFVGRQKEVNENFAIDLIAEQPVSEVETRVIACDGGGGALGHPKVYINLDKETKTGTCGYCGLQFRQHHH

| Target | thermal stability z-score [1, 3] | thermal stability z-score ([1]; arsenate co-treatment: none) | thermal stability z-score [2] |
| --- | --- | --- | --- |
| WDFY3 (UniProt Q8IZQ1) | -0.0589 | 0.0954 | -0.0794 |
| NMT1 (UniProt P30419) | 0.237 | -0.0177 | 1.15 |
| PKP3 (UniProt Q9Y446) | -0.116 | 0.603 | 0.191 |
| GRAMD1A (UniProt Q96CP6) | -1.5 | -1.05 | 0.0677 |
| TUBGCP3 (UniProt Q96CW5) | 0.238 | 0.127 | 0.123 |
| ATXN3 (UniProt P54252) | 0.199 | 0.278 | -0.115 |
| MRPL2 (UniProt Q5T653) | 0.745 | 0.173 | 0.601 |
| NDUFAF5 (UniProt Q5TEU4) | -0.066 | -0.112 | 0.155 |
| QKI (UniProt Q96PU8) | -0.625 | 0.069 | 0.0813 |
| NME3 (UniProt Q13232) | 0.0656 | 0.615 | 0.673 |
| DDX55 (UniProt Q8NHQ9) | 0.693 | 0.58 | 0.0246 |
| NHSL1 (UniProt Q5SYE7) | 0.0509 | 0.218 | 0.0815 |
| LZTFL1 (UniProt Q9NQ48) | 0.0385 | 0.0985 | -0.312 |
| CABLES1 (UniProt Q8TDN4) | 0.124 | 0.218 | -0.0215 |
| PTGES3 (UniProt Q15185) | 0.0467 | 0.127 | -0.454 |
| SERF1A (UniProt O75920) | -0.0837 | 0.743 | -0.297 |
| REPIN1 (UniProt Q9BWE0) | -0.686 | -0.309 | 0.53 |
| YWHAQ (UniProt P27348) | 0.857 | 0.727 | 0.199 |
| GSTT1 (UniProt P30711) | 1.07 | 0.0783 | -0.279 |
| CDC42EP4 (UniProt Q9H3Q1) | -0.323 | -0.652 | 0.499 |
| ATM (UniProt Q13315) | 0.678 | -0.445 | 0.00628 |
| NDUFA11 (UniProt Q86Y39) | 0.521 | -0.0102 | 0.571 |
| CTU1 (UniProt Q7Z7A3) | -0.119 | -0.0524 | -0.16 |
| TOMM22 (UniProt Q9NS69) | 0.165 | 0.384 | 0.468 |

| Target | thermal stability z-score [1, 3] | thermal stability z-score ([1]; arsenate co-treatment: none) | thermal stability z-score [2] |
| --- | --- | --- | --- |
| VPS4A (UniProt Q9UN37) | -0.367 | -0.472 | -0.19 |
| BCS1L (UniProt Q9Y276) | 0.472 | 0.86 | 0.3 |
| FBXO21 (UniProt O94952) | -0.226 | -1.07 | 0.0266 |
| CNOT6 (UniProt Q9ULM6) | -0.197 | -0.108 | 0.03 |
| IMMT (UniProt Q16891) | 0.667 | 0.854 | 1.31 |
| ARID2 (UniProt Q68CP9) | 0.136 | 0.254 | -0.234 |
| RASA1 (UniProt P20936) | 0.447 | 0.753 | 1.15 |
| ANGEL2 (UniProt Q5VTE6) | -0.111 | -0.19 | -0.0197 |
| ANKRD40 (UniProt Q6AI12) | 0.246 | 0.087 | 0.146 |
| AHSA1 (UniProt O95433) | 0.722 | 0.671 | 0.423 |
| FASTKD5 (UniProt Q7L8L6) | -1.07 | 0.633 | 0.437 |
| NDUFS6 (UniProt O75380) | -0.253 | 0.123 | -0.244 |
| UBL4A (UniProt P11441) | 0.683 | 1.2 | 1.11 |
| PRMT6 (UniProt Q96LA8) | 0.257 | 0.412 | 0.483 |
| EIF2AK3 (UniProt Q9NZJ5) | -0.372 | -0.109 | -0.317 |
| CD81 (UniProt P60033) | -0.142 | -0.642 | -0.753 |
| MAML1 (UniProt Q92585) | 0.141 | 0.017 | 1.03 |
| JMJD6 (UniProt Q6NYC1) | -0.363 | 0.15 | 0.606 |
| CORO7 (UniProt P57737) | 0.188 | 0.174 | -0.177 |
| HAUS2 (UniProt Q9NVX0) | -0.143 | -0.261 | 0.0695 |
| EXOSC7 (UniProt Q15024) | 0.482 | 0.0621 | -1.11 |
| CCDC102A (UniProt Q96A19) | -0.156 | -0.283 | -0.327 |
| HYI (UniProt Q5T013) | 1.85 | 0.651 | 0.524 |
| B4GAT1 (UniProt O43505) | -0.309 | -0.831 | 0.0622 |

| Target | thermal stability z-score [1, 3] | thermal stability z-score ([1]; arsenate co-treatment: none) | thermal stability z-score [2] |
| --- | --- | --- | --- |
| COG6 (UniProt Q9Y2V7) | -0.00556 | -0.0575 | -0.012 |
| GATSL2 (UniProt A6NHX0) | 0.724 | -1.44 | -0.242 |
| HNRNPUL2 (UniProt Q1KMD3) | 0.105 | 0.057 | -0.392 |
| FLNB (UniProt O75369) | 0.683 | 0.798 | -0.574 |
| GTF2E1 (UniProt P29083) | -0.0787 | 0.126 | 0.733 |
| TMCO3 (UniProt Q6UWJ1) | -0.807 | -1.31 | 0.2 |
| KDELC2 (UniProt Q7Z4H8) | -4.05 | -2.72 | 0.334 |
| RPN2 (UniProt P04844) | -2.41 | -1.79 | 0.141 |
| CYFIP1 (UniProt Q7L576) | -0.422 | -0.325 | -1.67 |
| EIF2S1 (UniProt P05198) | -0.375 | -0.142 | 0.0905 |
| MED7 (UniProt O43513) | -0.0337 | -0.104 | -0.328 |
| TOMM20 (UniProt Q15388) | 0.133 | 1.67 | 1.73 |
| CDK2 (UniProt P24941) | 1.12 | 0.288 | 0.48 |
| SLC9A3R1 (UniProt O14745) | 0.348 | 0.362 | -0.36 |
| MXRA7 (UniProt P84157) | 0.254 | 0.307 | -0.34 |
| AKT1S1 (UniProt Q96B36) | -0.0956 | -0.229 | -0.504 |
| PTBP2 (UniProt Q9UKA9) | -0.138 | -0.14 | -0.161 |
| ASB9 (UniProt Q96DX5) | 0.263 | 0.826 | -0.202 |
| TNPO1 (UniProt Q92973) | -1.32 | -1.31 | 1.98 |
| KXD1 (UniProt Q9BQD3) | 0.543 | 0.711 | 0.28 |
| SLC25A12 (UniProt O75746) | -0.149 | -0.154 | -0.0761 |
| SF1 (UniProt Q15637) | 0.425 | 0.249 | 0.681 |
| GLRX2 (UniProt Q9NS18) | 1.4 | 1.7 | 3.8 |
